Tested on: NFAT
Experiment: Podocyte-NFAT reporter assay (luciferase)
Format: cell-based, mouse
Conditions: for baseline NFAT activity: wild type (wt) podocytes, single inhibitor, FIG. 8
Text: Podocyte-NFAT reporter assays: A podocyte cell line that stably expressed pGL4.30 reporter plasmid (Promega) was generated. pGL4.30 includes the luc2P firefly luciferase gene under the control of the NFAT response element. For LPS treatments both wt and stable TRPC6 knockdown podocyte cell line were transiently transfected with the pGL4.30 and pGL4.74 reporter plasmids (Promega). pGL4.74 includes the hRluc Renilla luciferase gene under the control of the constitutive HSV-TK promoter, serving as an internal control for normalization of the results. Cells were seeded in 96 well plates in standardized cell number and differentiated for three weeks prior to transfection and treatments. Stable cell lines were probed with BRIGHT-GLO Luciferase Assay System (Promega), transiently transfected cells were assayed with DUAL-GLO Luciferase Assay System (Promega). Luminescence was measured on a Molecular Devices luminescence microplate reader SpectraMax L. All experiments were carried out in octuplicate per condition and repeated in three independent experiments.

| Molecule | baseline NFAT activity | NFAT activity after pretreatment with the substance (wt podocytes, versus low baseline, FIG. 6A) |
| --- | --- | --- |
| O=S(=O)(NCCNC/C=C/c1ccc(Br)cc1)c1cccc2cnccc12 [H-89] | reduction |  |
| CN([C@@H](Cc1ccc(OS(=O)(=O)c2cccc3cnccc23)cc1)C(=O)N1CCN(c2ccccc2)CC1)S(=O)(=O)c1cccc2cnccc12 [KN-62] | reduction |  |
| lipopolysaccharide [LPS] |  | strongly increased |

— patent US20120251527A1, “PODOCYTE SPECIFIC ASSAYS AND USES THEREOF” (University of Miami, priority 2009, published 2012)
